Drawing on ChEMBL document CHEMBL5442175, “EUbOPEN Chemogenomics Library - PDSP Secondary Binding” (2024), this text covers Ki for 14 compounds.

The structures appear in SMILES notation. Counter-ions that a name gives are not always drawn.

Assay [1] has as its target 5-hydroxytryptamine receptor 2B (Homo sapiens, UniProt P41595). Description: PDSP Secondary Binding target: HTR2B - Compounds are tested at 10 uM concentration, plate are incubated at room temperature in the dark for 90 minutes. Reaction are stopped by vacuum filtration onto 0.3% polyethyleneimine soaked filter mats using Filtermate harvester. Scintillation cocktail is then melted onto microwave-dried filters on a hot plate and the radio activity is counted in Microbia counter.

Assay [2] addresses T1, Alpha-1B adrenergic receptor (Homo sapiens, UniProt P35368).
T1 sequence (P35368 whole entry): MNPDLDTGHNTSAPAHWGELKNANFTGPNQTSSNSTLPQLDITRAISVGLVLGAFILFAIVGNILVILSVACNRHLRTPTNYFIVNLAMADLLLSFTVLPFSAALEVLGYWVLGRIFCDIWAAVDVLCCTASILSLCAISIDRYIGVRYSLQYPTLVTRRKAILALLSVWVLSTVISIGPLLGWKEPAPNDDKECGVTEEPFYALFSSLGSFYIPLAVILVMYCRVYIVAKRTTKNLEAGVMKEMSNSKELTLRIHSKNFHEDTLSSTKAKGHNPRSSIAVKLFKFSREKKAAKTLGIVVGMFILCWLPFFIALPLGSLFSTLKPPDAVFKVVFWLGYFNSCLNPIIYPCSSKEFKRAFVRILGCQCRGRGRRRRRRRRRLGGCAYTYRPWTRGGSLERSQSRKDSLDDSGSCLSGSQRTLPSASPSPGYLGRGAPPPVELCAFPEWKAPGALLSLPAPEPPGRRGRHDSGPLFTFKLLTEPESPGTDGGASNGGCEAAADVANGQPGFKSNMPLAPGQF
Briefly: PDSP Secondary Binding target: ADRA1B - Compounds are tested at 10 uM concentration, plate are incubated at room temperature in the dark for 90 minutes. Reaction are stopped by vacuum filtration onto 0.3% polyethyleneimine soaked filter mats using Filtermate harvester. Scintillation cocktail is then melted onto microwave-dried filters on a hot plate and the radio activity is counted in Microbia counter.

Assay [3] addresses Sigma non-opioid intracellular receptor 1 (Homo sapiens, UniProt Q99720). Briefly: PDSP Secondary Binding target: SIGMAR1 - Compounds are tested at 10 uM concentration, plate are incubated at room temperature in the dark for 90 minutes. Reaction are stopped by vacuum filtration onto 0.3% polyethyleneimine soaked filter mats using Filtermate harvester. Scintillation cocktail is then melted onto microwave-dried filters on a hot plate and the radio activity is counted in Microbia counter.

For assay [4], the target named is Sodium-dependent dopamine transporter (Homo sapiens, UniProt Q01959). Description: PDSP Secondary Binding target: SLC6A3 - Compounds are tested at 10 uM concentration, plate are incubated at room temperature in the dark for 90 minutes. Reaction are stopped by vacuum filtration onto 0.3% polyethyleneimine soaked filter mats using Filtermate harvester. Scintillation cocktail is then melted onto microwave-dried filters on a hot plate and the radio activity is counted in Microbia counter.

The target of the next assay is Mu-type opioid receptor (Homo sapiens, UniProt P35372). Description: PDSP Secondary Binding target: OPRM1 - Compounds are tested at 10 uM concentration, plate are incubated at room temperature in the dark for 90 minutes. Reaction are stopped by vacuum filtration onto 0.3% polyethyleneimine soaked filter mats using Filtermate harvester. Scintillation cocktail is then melted onto microwave-dried filters on a hot plate and the radio activity is counted in Microbia counter.

Assay [5] has as its target Kappa-type opioid receptor (Homo sapiens, UniProt P41145). Briefly: PDSP Secondary Binding target: OPRK1 - Compounds are tested at 10 uM concentration, plate are incubated at room temperature in the dark for 90 minutes. Reaction are stopped by vacuum filtration onto 0.3% polyethyleneimine soaked filter mats using Filtermate harvester. Scintillation cocktail is then melted onto microwave-dried filters on a hot plate and the radio activity is counted in Microbia counter.

The target of the next assay is T2, D(4) dopamine receptor (Homo sapiens, UniProt P21917).
T2 sequence (P21917 whole entry): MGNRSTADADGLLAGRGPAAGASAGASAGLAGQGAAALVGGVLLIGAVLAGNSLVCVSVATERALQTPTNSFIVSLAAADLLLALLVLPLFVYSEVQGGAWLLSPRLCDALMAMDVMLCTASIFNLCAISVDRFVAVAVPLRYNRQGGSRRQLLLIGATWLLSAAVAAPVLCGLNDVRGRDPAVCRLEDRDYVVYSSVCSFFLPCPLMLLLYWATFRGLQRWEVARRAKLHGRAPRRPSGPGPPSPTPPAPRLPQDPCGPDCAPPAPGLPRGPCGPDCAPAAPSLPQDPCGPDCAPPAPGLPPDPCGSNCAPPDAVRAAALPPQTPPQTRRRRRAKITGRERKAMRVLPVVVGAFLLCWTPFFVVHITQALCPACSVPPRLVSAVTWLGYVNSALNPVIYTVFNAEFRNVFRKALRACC
Description: PDSP Secondary Binding target: DRD4 - Compounds are tested at 10 uM concentration, plate are incubated at room temperature in the dark for 90 minutes. Reaction are stopped by vacuum filtration onto 0.3% polyethyleneimine soaked filter mats using Filtermate harvester. Scintillation cocktail is then melted onto microwave-dried filters on a hot plate and the radio activity is counted in Microbia counter.

The target of another assay is Translocator protein (Homo sapiens, UniProt P30536). Briefly: PDSP Secondary Binding target: TSPO - Compounds are tested at 10 uM concentration, plate are incubated at room temperature in the dark for 90 minutes. Reaction are stopped by vacuum filtration onto 0.3% polyethyleneimine soaked filter mats using Filtermate harvester. Scintillation cocktail is then melted onto microwave-dried filters on a hot plate and the radio activity is counted in Microbia counter.

The target of assay [6] is T3, Muscarinic acetylcholine receptor M5 (Homo sapiens, UniProt P08912).
T3 sequence (P08912 whole entry): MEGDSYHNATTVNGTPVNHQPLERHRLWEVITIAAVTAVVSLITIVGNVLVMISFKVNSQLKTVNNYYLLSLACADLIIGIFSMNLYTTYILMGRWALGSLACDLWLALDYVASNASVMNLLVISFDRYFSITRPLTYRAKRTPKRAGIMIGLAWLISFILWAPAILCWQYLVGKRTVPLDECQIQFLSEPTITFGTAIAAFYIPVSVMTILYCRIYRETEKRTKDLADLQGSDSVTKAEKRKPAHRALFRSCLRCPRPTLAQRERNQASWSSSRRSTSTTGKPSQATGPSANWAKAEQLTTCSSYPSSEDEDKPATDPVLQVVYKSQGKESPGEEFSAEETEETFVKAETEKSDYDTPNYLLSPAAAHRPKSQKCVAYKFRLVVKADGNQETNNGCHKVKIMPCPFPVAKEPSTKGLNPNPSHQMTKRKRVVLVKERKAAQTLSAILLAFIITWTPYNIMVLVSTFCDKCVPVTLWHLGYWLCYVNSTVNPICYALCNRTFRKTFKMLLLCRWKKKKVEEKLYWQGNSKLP
Description: PDSP Secondary Binding target: CHRM5 - Compounds are tested at 10 uM concentration, plate are incubated at room temperature in the dark for 90 minutes. Reaction are stopped by vacuum filtration onto 0.3% polyethyleneimine soaked filter mats using Filtermate harvester. Scintillation cocktail is then melted onto microwave-dried filters on a hot plate and the radio activity is counted in Microbia counter.

The target in assay [7] is Sigma intracellular receptor 2 (Homo sapiens, UniProt Q5BJF2). Description: PDSP Secondary Binding target: TMEM97 - Compounds are tested at 10 uM concentration, plate are incubated at room temperature in the dark for 90 minutes. Reaction are stopped by vacuum filtration onto 0.3% polyethyleneimine soaked filter mats using Filtermate harvester. Scintillation cocktail is then melted onto microwave-dried filters on a hot plate and the radio activity is counted in Microbia counter.

The next assay addresses D(3) dopamine receptor (Homo sapiens, UniProt P35462). Briefly: PDSP Secondary Binding target: DRD3 - Compounds are tested at 10 uM concentration, plate are incubated at room temperature in the dark for 90 minutes. Reaction are stopped by vacuum filtration onto 0.3% polyethyleneimine soaked filter mats using Filtermate harvester. Scintillation cocktail is then melted onto microwave-dried filters on a hot plate and the radio activity is counted in Microbia counter.

In assay [8] the target is 5-hydroxytryptamine receptor 5A (Homo sapiens, UniProt P47898). Description: PDSP Secondary Binding target: HTR5A - Compounds are tested at 10 uM concentration, plate are incubated at room temperature in the dark for 90 minutes. Reaction are stopped by vacuum filtration onto 0.3% polyethyleneimine soaked filter mats using Filtermate harvester. Scintillation cocktail is then melted onto microwave-dried filters on a hot plate and the radio activity is counted in Microbia counter.

For assay [9], the target named is 5-hydroxytryptamine receptor 1D (Homo sapiens, UniProt P28221). Briefly: PDSP Secondary Binding target: HTR1D - Compounds are tested at 10 uM concentration, plate are incubated at room temperature in the dark for 90 minutes. Reaction are stopped by vacuum filtration onto 0.3% polyethyleneimine soaked filter mats using Filtermate harvester. Scintillation cocktail is then melted onto microwave-dried filters on a hot plate and the radio activity is counted in Microbia counter.
Chain of 5-hydroxytryptamine receptor 1D (P28221 whole entry): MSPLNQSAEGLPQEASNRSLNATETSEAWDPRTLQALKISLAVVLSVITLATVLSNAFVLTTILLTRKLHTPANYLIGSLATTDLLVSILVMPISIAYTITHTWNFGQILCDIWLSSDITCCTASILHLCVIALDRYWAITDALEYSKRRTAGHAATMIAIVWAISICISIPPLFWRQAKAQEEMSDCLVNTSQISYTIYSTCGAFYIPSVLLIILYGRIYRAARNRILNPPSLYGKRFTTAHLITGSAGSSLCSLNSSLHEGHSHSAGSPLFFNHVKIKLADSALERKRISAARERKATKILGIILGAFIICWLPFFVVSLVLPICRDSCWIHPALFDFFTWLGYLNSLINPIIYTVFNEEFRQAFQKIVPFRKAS

Chain of Sodium-dependent dopamine transporter (Q01959 whole entry): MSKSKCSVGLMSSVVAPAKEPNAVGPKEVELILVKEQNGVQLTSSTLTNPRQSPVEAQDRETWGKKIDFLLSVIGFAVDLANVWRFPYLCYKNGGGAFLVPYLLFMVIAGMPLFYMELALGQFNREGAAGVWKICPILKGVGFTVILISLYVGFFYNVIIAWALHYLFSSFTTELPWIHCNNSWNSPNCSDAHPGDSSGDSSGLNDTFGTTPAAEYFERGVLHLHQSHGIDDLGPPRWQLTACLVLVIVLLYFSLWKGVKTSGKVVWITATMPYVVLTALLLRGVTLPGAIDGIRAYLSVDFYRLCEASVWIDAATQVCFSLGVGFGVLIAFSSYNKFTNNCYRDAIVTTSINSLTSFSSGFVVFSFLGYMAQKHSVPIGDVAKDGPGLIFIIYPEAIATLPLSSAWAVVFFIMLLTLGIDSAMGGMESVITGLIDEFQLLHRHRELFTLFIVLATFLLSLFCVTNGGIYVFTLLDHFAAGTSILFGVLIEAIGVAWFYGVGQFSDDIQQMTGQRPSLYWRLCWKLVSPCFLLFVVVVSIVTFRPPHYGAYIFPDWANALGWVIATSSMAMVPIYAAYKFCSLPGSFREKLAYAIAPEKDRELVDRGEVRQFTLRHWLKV
Chain of 5-hydroxytryptamine receptor 2B (P41595 whole entry): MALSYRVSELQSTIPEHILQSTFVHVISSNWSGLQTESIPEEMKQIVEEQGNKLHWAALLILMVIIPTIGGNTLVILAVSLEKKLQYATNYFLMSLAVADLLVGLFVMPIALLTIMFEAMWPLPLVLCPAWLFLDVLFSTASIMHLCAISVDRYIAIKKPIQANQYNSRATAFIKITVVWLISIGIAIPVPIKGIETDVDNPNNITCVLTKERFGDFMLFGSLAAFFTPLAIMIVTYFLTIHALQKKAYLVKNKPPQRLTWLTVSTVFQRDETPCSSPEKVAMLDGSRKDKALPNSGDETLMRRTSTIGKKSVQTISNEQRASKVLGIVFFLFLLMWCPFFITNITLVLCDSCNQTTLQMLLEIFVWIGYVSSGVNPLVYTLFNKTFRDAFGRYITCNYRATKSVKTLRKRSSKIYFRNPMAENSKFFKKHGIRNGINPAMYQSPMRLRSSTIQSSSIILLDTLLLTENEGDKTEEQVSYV
Chain of Kappa-type opioid receptor (P41145 whole entry): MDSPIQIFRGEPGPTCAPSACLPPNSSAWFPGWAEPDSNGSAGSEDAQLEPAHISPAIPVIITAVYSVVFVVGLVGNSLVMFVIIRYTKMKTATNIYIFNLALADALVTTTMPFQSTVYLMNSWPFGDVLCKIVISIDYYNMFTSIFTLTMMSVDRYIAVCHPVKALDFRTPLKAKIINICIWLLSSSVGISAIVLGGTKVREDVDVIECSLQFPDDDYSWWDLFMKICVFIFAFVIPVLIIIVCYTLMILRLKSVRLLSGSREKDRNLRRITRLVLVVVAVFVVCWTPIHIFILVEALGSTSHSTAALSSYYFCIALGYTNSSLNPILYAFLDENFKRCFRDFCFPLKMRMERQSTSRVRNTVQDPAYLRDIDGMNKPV
Chain of Sigma non-opioid intracellular receptor 1 (Q99720 whole entry): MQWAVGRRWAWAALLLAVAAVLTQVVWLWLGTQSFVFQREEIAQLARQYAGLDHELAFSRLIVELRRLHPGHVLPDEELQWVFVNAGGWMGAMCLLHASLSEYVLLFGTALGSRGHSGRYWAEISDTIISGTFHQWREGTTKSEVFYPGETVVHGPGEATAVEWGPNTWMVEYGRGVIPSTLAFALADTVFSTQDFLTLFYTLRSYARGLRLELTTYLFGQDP
Chain of Mu-type opioid receptor (P35372 whole entry): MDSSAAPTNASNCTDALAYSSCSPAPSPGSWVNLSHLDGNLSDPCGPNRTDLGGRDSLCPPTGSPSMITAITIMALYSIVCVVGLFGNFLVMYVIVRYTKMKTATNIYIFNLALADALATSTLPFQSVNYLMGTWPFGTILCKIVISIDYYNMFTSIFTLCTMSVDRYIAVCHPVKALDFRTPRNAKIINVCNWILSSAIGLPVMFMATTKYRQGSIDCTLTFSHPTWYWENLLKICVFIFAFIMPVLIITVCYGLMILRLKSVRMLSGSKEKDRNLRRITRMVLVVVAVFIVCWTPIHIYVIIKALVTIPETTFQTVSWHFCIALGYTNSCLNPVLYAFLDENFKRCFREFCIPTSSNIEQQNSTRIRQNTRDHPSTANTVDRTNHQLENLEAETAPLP
Chain of Sigma intracellular receptor 2 (Q5BJF2 whole entry): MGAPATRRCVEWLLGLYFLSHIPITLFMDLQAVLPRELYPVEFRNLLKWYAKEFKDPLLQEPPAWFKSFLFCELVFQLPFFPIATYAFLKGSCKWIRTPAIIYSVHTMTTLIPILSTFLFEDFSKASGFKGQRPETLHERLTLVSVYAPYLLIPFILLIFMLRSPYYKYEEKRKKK
Chain of Translocator protein (P30536 whole entry): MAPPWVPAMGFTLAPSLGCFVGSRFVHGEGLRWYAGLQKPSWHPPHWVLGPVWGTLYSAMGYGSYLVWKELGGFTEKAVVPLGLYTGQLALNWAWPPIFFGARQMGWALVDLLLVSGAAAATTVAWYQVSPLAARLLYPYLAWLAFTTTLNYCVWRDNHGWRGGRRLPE
Chain of 5-hydroxytryptamine receptor 5A (P47898 whole entry): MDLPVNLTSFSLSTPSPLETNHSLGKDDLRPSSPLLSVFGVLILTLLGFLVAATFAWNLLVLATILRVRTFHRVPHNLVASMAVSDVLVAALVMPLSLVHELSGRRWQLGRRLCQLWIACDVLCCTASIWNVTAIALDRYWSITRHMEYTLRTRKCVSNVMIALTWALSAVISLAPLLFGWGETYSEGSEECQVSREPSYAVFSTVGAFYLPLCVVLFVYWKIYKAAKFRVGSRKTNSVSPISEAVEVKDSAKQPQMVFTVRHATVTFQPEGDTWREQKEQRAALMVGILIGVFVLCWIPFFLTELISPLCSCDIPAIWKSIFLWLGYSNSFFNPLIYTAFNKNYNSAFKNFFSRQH
Chain of D(3) dopamine receptor (P35462 whole entry): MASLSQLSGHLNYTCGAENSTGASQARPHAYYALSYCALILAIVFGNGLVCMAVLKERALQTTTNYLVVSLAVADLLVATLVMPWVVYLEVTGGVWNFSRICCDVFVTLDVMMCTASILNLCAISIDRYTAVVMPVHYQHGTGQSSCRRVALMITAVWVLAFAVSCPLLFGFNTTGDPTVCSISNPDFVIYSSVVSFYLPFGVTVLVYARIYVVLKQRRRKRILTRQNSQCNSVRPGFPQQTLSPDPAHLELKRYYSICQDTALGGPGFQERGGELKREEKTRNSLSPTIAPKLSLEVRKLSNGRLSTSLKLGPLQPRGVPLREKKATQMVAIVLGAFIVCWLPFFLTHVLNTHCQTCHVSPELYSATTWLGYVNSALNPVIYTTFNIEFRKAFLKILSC

`COc1cc2c(CCNC(C)=O)c[nH]c2cc1Cl`: the inhibition constant Ki in assay [1] is 844 nM; in assay [2], over 10000 nM.
Regarding `CCc1cc(C(C)=O)c(O)cc1OCCCCCC(C)(C)c1nn[nH]n1` [LY-255283], the inhibition constant (Ki) in assay [1] stood at 2680 nM; in assay [3], 5780 nM.
`C[C@H](NC[C@H](O)CP(=O)(O)CC1CCCCC1)c1ccc(Cl)c(Cl)c1`: the results for the Ki (in assay [4]; at Mu-type opioid receptor; in assay [5]) were 520 nM, 1280 nM and 1110 nM, respectively.
In the case of `Cc1c(C(=O)NC2CCCCC2)sc2nc3ccc(N)cc3n12`, the Ki is 656 nM in assay [1] and 908 nM in assay [3].
On to `CCCCN(CCCC)C(=O)CN1C[C@@H](c2ccc3c(c2)OCO3)[C@H](C(=O)O)[C@H]1c1ccc(OC)cc1`, for which the inhibition constant (Ki) was determined as 1910 nM on D(4) dopamine receptor, 184 nM at Translocator protein and 2810 nM in assay [3].
With `O=C1N/C(=N/c2ccccc2F)S/C1=C\c1ccc(C(=O)O)cc1`, the Ki was 5230 nM in assay [6], over 10000 nM on Mu-type opioid receptor and over 10000 nM on D(4) dopamine receptor.
In the case of `Cc1ccccc1N1CCN(S(=O)(=O)C[C@]23CC[C@H](C[C@@H]2NC(=O)[C@@H](N)CCS(C)(=O)=O)C3(C)C)CC1`, the Ki in assay [7] is 309 nM; in assay [5] it was 4.03 nM; in [3], 70.1 nM.
For the compound `O=C(Cc1ccc(Cl)c(Cl)c1)N1CCCC[C@H]1CN1CCCC1`, the Ki in [4] was 4860 nM; on D(4) dopamine receptor, 2030 nM; in assay [7] it was 37 nM; in assay [5], 0.591 nM; in assay [3], 11.7 nM.
For the compound `CCc1cc2c(c(CC)n1)CCC(=O)N2Cc1ccc(-c2ccccc2-c2nnn[nH]2)cc1`, the Ki worked out at 6270 nM on Mu-type opioid receptor, 270 nM at D(3) dopamine receptor and 545 nM on D(4) dopamine receptor.
In assay [5], `COc1cccc(-c2c(C)n(Cc3c(F)cccc3C(F)(F)F)c(=O)n(C[C@H](NCCCC(=O)O)c3ccccc3)c2=O)c1F` [ELAGOLIX SODIUM] had an inhibition constant Ki of 2380 nM.
Turning to `COc1cc2nc(N3CCN(C(=O)c4ccco4)CC3)nc(N)c2cc1OC` [PRAZOSIN HYDROCHLORIDE], the Ki at Mu-type opioid receptor was 1790 nM; at Translocator protein, over 10000 nM; in assay [8], 800 nM; in [3], 2970 nM.
As for `CN(C)C(=O)C(CCN1CCC(O)(c2ccc(Cl)cc2)CC1)(c1ccccc1)c1ccccc1` [LOPERAMIDE HYDROCHLORIDE], the inhibition constant Ki was found to be 1410 nM in assay [4]; 362 nM in assay [1]; 3690 nM in assay [2]; 1460 nM on D(4) dopamine receptor; 2600 nM in assay [9]; 36.7 nM in [7]. In addition, in assay [3], the affinity, expressed as Ki, was 169 nM.
On to `c1ccc(N2CCN(Cc3nc4ccccc4[nH]3)CC2)nc1`, for which the Ki turned out to be 199 nM at D(4) dopamine receptor, 2120 nM in assay [5] and 2260 nM in assay [3].
On to `CC(C)NCC(O)COc1cccc2[nH]ccc12` (centres undefined) [PINDOLOL], for which the Ki is 1660 nM on D(4) dopamine receptor, 7050 nM in [8] and 3320 nM in [7].
